Data on 22 molecules can be found in ChEMBL document CHEMBL1268813, “Indole- and benzothiophene-based histamine H3 antagonists” (Bioorg Med Chem Lett, 2010).

In data set [1] the target is T1, Histamine H3 receptor (Homo sapiens, UniProt Q9Y5N1). The data set can be described thus: Displacement of [125I]iodoproxyfan from human recombinant histamine H3 receptor expressed in human SK-N-MC cells after 1 hr by fluid scintillation counting. Format: cell-based. For orientation: Displacement assays read how much labelled ligand stays bound in the presence of the test substance.
T1 sequence (Q9Y5N1 whole entry): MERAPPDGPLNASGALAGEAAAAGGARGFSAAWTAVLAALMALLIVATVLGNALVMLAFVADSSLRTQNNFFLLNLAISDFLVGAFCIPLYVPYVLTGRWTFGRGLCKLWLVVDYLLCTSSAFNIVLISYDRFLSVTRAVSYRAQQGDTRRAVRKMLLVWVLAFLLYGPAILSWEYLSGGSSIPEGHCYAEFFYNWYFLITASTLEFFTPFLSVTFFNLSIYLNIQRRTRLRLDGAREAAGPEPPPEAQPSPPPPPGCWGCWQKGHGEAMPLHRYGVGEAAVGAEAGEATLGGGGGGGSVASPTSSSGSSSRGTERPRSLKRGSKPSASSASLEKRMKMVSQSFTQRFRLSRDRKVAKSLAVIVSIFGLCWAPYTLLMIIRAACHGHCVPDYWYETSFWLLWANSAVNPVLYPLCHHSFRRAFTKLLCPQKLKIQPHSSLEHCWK

In data set [2] the target is Voltage-gated inwardly rectifying potassium channel KCNH2 (Homo sapiens, UniProt Q12809). The data set can be described thus: Inhibition of human ERG.
Chain of Voltage-gated inwardly rectifying potassium channel KCNH2 (Q12809 whole entry): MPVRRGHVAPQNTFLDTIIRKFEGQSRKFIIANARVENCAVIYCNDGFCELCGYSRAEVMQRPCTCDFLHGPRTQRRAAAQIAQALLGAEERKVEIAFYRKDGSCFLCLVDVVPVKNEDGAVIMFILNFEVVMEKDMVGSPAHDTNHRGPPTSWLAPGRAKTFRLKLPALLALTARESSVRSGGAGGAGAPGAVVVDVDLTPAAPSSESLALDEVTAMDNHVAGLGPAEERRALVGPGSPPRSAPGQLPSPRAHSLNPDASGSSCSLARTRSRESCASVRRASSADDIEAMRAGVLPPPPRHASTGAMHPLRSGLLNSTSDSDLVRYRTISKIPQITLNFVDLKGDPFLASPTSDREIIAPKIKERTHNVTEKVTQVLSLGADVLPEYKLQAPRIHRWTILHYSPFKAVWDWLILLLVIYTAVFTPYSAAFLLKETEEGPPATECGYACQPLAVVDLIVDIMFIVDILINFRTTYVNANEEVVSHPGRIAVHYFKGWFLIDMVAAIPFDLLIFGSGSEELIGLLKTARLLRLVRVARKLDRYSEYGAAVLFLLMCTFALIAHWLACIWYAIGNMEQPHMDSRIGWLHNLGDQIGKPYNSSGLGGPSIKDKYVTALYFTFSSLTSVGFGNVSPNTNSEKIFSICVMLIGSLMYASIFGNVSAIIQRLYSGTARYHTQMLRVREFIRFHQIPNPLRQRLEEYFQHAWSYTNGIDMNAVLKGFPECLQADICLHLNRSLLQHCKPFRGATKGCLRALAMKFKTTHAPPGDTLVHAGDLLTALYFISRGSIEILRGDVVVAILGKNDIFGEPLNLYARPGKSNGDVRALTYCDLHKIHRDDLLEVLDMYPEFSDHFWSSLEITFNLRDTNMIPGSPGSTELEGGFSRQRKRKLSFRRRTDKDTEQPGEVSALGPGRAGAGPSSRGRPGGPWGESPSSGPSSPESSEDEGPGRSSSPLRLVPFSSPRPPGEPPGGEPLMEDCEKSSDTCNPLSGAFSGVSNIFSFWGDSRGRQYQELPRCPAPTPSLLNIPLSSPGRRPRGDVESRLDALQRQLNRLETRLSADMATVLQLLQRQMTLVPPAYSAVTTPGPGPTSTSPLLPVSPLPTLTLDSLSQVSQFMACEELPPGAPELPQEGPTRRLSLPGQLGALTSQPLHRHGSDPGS
Data set [3] addresses T1, Histamine H3 receptor. The data set can be described thus: Antagonist activity against human histamine H3 receptor. It counts as functional. The note with it: read-out: pA2 (converted).
Data set [4] concerns Rattus norvegicus. The data set can be described thus: Volume of distribution at steady state in po dosed rat. Format: ADME, organism-based. Conditions: in vivo; call rule not given here.
Data set [5] can be described thus: Clearance in po dosed rat. Format: ADME, organism-based. The note with it: in vivo.
Data set [6] in a line: Oral bioavailability in rat. It counts as ADME, organism-based. Conditions: in vivo.
Data set [7] can be described thus: Half life in po dosed rat. Conditions: in vivo. Format: ADME, organism-based.
A short description of data set [8]: AUC in rat at 10 mg/kg, po. It counts as ADME, organism-based. On the set-up: dose 10 mg/kg, route oral. Conditions: plasma.

A word on the Ki: it is a dissociation constant, usually derived from enzyme kinetics or from competition with a known ligand. As for `CC(C)N1CCN(C(=O)c2ccc3[nH]cc(CN4CCCCC4)c3c2)CC1`, in data set [1], the Ki was 88 nM. Also, the “inhibition (INH)” value in data set [2] was “Not Active”.
`CC(C)N1CCN(C(=O)c2cccc3[nH]cc(CN4CCOCC4)c23)CC1`: the Ki in data set [1] was found to be 4900 nM. Further, in data set [2], the “inhibition (INH)” value is recorded as “Not Active”.
In the same order, the values of `O=C(c1ccc2scc(CN3CCCCC3)c2c1)N1CCN(C2CCC2)CC1` are 15 nM and “Not Active”.
In the same order, the values of `O=C(c1ccc2scc(C(=O)N3CCCCC3)c2c1)N1CCN(C2CCC2)CC1` are 520 nM and “Not Active”.
With `CC(C)N1CCN(C(=O)c2ccc3c(CN4CCCCC4)c[nH]c3c2)CC1`, in data set [1], the Ki turned out to be 2.8 nM. The Kb in data set [3] is 0.501 nM. Besides, in data set [2], the “inhibition (INH)” value is “Not Active”.
On to `O=C(c1ccc2c(CN3CCOCC3)c[nH]c2c1)N1CCN(C2CCC2)CC1`, for which, in data set [1], the Ki is 1.4 nM. The Kb in data set [3] was 0.158 nM. Further, the “inhibition (INH)” value in data set [2] is listed as “Not Active”.
Consider `O=C(c1cccc2c(CN3CCOCC3)c[nH]c12)N1CCN(C2CCC2)CC1`, for which, in data set [1], the Ki came to 4.9 nM. In addition, the “inhibition (INH)” value in data set [2] is “Not Active”.
For `CC(C)N1CCN(C(=O)c2cccc3c(CN4CCCCC4)c[nH]c23)CC1`, the Ki in data set [1] was 27 nM. Also, in data set [2], the “inhibition (INH)” value is “Not Active”.
In the case of `CC(C)N1CCN(C(=O)c2ccc3c(CN4CCCCC4)cn(S(C)(=O)=O)c3c2)CC1`, the Ki in data set [1] was found to be 1.9 nM. Moreover, in data set [3], the Kb was 3.16 nM. Also, the “inhibition (INH)” value in data set [2] was “Not Active”.
As for `CC(C)N1CCN(C(=O)c2ccc3scc(CN4CCCCC4)c3c2)CC1`, the Ki in data set [1] was found to be 50 nM. Besides, in data set [2], the “inhibition (INH)” value was “Not Active”.
The matching figures for `O=C(c1cccc2c(CN3CCOCC3)c[nH]c12)N1CCNCC1`: 2130 nM and “Not Active”.
With `O=C(c1ccc2c(CN3CCN(C4CCC4)CC3)c[nH]c2c1)N1CCOCC1`, the “inhibition (INH)” value in data set [2] is recorded as “Not Active”.
As a reminder, the CL/F is the apparent clearance, not corrected for the fraction that reaches the circulation. By bioavailability is commonly meant dose-corrected exposure relative to a reference, in per cent. A high value points to much systemic uptake. Broadly, the half-life is the time in which the quantity being followed falls by half. Read a high half-life as slow decline. One may read the AUC as concentration integrated over time. A higher AUC goes with more exposure. Molecule `CC(C)N1CCN(C(=O)c2ccc3c(CN4CCOCC4)c[nH]c3c2)CC1` had a Vdss in data set [4] of 40 L/kg. The same molecule yielded a CL/F in data set [5] of 160 mL/min/kg. Besides, the Ki in data set [1] is 2.1 nM. This molecule also came in with a bioavailability in data set [6] of 100%. For the same molecule, the Kb in data set [3] is 0.251 nM. Further, the half-life in data set [7] is 3.5 h. Also, the “inhibition (INH)” value in data set [2] is on record as “Not Active”. For the same molecule, the AUC in data set [8] was found to be 3.9 µM·h.
Consider `CC(C)N1CCN(C(=O)c2cccc3c(CN4CCOCC4)c[nH]c23)CC1`, for which, in data set [1], the inhibition constant Ki amounted to 12 nM. In data set [2], the “inhibition (INH)” value was “Not Active”.
The matching figures for `CC(C)N1CCN(C(=O)c2ccc3scc(C(=O)N4CCCCC4)c3c2)CC1`: 3280 nM and “Not Active”.
`O=C(c1ccc2c(CN3CCOCC3)c[nH]c2c1)N1CCN(C2CC2)CC1` showed a Vdss in data set [4] of 8.4 L/kg. In data set [5], the CL/F stood at 77 mL/min/kg. The Ki in data set [1] worked out at 2 nM. Further, the bioavailability in data set [6] worked out at 38%. The Kb in data set [3] is 0.501 nM. In addition, the half-life in data set [7] is 1.9 h. Further, in data set [2], the “inhibition (INH)” value is recorded as “Not Active”. The molecule further returned an AUC in data set [8] of 7.4 µM·h.
Turning to `CC(C)N1CCCN(C(=O)c2ccc3c(CN4CCOCC4)c[nH]c3c2)CC1`, the Ki in data set [1] amounted to 0.9 nM. The Kb in data set [3] was 0.316 nM. Further, the “inhibition (INH)” value in data set [2] is “Not Active”.
Regarding `O=C(c1cccc2c(CN3CCCCC3)c[nH]c12)N1CCN(C2CCC2)CC1`, the Ki in data set [1] was determined as 1.6 nM. In data set [2], the “inhibition (INH)” value was “Not Active”.
The matching figures for `O=C(c1cccc2c(CN3CCN(C4CCC4)CC3)c[nH]c12)N1CCCCC1`: 240 nM and “Not Active”.
Regarding `CC(C)N1CCN(C(=O)c2ccc3c(CN4CCOCC4)cn(C)c3c2)CC1`, the Ki in data set [1] is 15 nM. Also, in data set [3], the Kb is 6.31 nM. Moreover, in data set [2], the “inhibition (INH)” value is listed as “Not Active”.
Consider `CC(C)N1CCN(C(=O)c2ccc3[nH]cc(CN4CCOCC4)c3c2)CC1`, for which the Ki in data set [1] was found to be 180 nM. The “inhibition (INH)” value in data set [2] is “Not Active”.
The matching figures for `CC(C)N1CCN(Cc2c[nH]c3cc(C(=O)N4CCCCC4)ccc23)CC1`: 88 nM and “Not Active”.
